Measured values taken from PMC3907690 (FEBS Open Bio, 2014).

What was measured:
[1] = target: WalKc(PH) (Bacillus anthracis, UniProt A0A6H3AEB6)
[2] = target: WalKc(H) (Bacillus anthracis, UniProt A0A6H3AEB6)
[3] = target: WalKc (Bacillus anthracis, UniProt A0A6H3AEB6)
[4] = target: WalR (Bacillus anthracis, UniProt A0A2P0HLU7)
Chain of WalR (A0A2P0HLU7 1-235): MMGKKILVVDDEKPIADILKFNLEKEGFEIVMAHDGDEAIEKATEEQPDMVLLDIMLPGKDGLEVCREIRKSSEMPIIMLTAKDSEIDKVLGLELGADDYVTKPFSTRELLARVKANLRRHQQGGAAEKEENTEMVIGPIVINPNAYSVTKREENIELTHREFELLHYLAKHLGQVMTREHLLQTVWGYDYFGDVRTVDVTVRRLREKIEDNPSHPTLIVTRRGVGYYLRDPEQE

Chain of WalKc (A0A6H3AEB6 210-613 limits assumed): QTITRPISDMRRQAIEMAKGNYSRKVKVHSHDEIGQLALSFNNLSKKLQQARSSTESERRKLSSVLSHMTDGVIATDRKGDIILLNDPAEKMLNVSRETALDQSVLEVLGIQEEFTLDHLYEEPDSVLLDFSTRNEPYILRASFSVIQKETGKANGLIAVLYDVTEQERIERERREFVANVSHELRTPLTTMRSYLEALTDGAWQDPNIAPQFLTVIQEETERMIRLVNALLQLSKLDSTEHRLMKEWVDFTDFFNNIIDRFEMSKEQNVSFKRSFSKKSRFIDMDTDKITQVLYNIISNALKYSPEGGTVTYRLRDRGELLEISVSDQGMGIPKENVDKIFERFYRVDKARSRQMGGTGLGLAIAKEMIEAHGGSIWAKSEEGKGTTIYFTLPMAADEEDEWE
Chain of WalKc(H) (A0A6H3AEB6 380-613 limits assumed): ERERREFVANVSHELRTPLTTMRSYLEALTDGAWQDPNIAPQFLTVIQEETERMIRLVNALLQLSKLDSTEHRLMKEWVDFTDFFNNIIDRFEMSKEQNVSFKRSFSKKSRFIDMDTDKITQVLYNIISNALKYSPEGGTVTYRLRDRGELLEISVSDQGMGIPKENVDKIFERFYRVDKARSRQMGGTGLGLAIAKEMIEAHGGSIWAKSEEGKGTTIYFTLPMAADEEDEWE
Chain of WalKc(PH) (A0A6H3AEB6 263-613 limits assumed): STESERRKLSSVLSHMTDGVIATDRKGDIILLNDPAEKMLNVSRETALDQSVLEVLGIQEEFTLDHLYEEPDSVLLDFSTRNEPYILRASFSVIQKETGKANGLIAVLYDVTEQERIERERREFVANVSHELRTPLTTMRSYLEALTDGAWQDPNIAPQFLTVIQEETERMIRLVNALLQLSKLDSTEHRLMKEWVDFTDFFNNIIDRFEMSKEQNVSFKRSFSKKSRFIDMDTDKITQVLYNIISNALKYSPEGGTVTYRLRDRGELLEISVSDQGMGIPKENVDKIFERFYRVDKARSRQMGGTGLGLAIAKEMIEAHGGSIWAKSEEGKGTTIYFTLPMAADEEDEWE

SMILES: Nc1ncnc2c1ncn2[C@@H]1O[C@H](COP(=O)(O)OP(=O)(O)OP(=O)(O)O)[C@@H](O)[C@H]1O [ATP]
- autophosphorylation, 32P SDS-PAGE autoradiography [1]: Both, WalKc(PH) and WalKc(H), appeared to be more efficient than WalKc in autophosphorylation
- autophosphorylation, 32P SDS-PAGE autoradiography [2]: Both, WalKc(PH) and WalKc(H), appeared to be more efficient than WalKc in autophosphorylation
- autophosphorylation, 32P SDS-PAGE autoradiography [3]: When WalKc was incubated with labeled ATP mixture, autophosphorylation could be detected

SMILES: NC(=O)OP(=O)(O)O [carbamoyl phosphate]
- phosphorylation of WalR, native PAGE with coomassie staining [4]: Carbamoyl phosphate mediated phosphorylation of WalR was also found to be inefficient
